“Also recorded” adds a separate entry of the source.

Assay [1] has as its system zebrafish hyaloid vasculature. The experiment in a line: Quantification of primary hyaloid vasculature branch number in Tg(fli1:EGFP) zebrafish. The assay is classed as in vivo. The conditions noted are these: for dose-dependent inhibition of development of hyaloid vessels: decreasing doses 20, 10, 7.5, 5, 2.5, 1 and/or 0.5 μM; for inhibition of developmental angiogenesis of the hyaloid vasculature (number of primary hyaloid vessels): typically 10 μM or 5 μM, from 24 hpf, vs DMSO control. The method, then: (§1) All experiments were carried out under ethical approval granted by the UCD animal research ethics committee. Tg(fli1:EGFP) zebrafish were maintained according to standard procedures on a 14 hr light/10 hr dark cycle at 28° C. Embryos were obtained by natural spawning and developmental stages established by time and morphological criteria. […] Larvae were euthanised, and fixed in 4% PFA at 4° C. overnight before analysis.
Overall patterning of the vasculature (fin, gut and intersegmental vessels) was examined for abnormalities. Right lenses were dissected from the larvae and transferred to depression slides for observation under epi-fluorescence in the Olympus SZX16. Patterning of the hyaloid vessels on the treated larval lenses was compared to DMSO controls and the archetypal pattern previously described (Alvarez et al., 2007; Alvarez et al., 2009).
as §1, with “analysis. Lenses were dissected from the larvae and transferred to depression slides for observation under epi-fluorescence in the Olympus SZX16. Patterning of the hyaloid vessels on the treated larval lenses was compared to DMSO controls and the archetypal pattern previously described (Alvarez et al., 2007; Alvarez et al., 2009).” for “analysis.”

For assay [2], the system named is OE33P radio-sensitive oesophageal adenocarcinoma cells. Briefly: Cell number after 24 hours drug treatment (crystal violet absorbance), OE33P. The assay is classed as cell-based, human. The following applies: 10 μM. The method, then:
(§2) OE33P radio-sensitive and OE33R radio-resistant oesophageal adenocarcinoma cells were used to test the effects of the compounds 11B HCl, […], 11B CC16 HCl, 11B 471 and 11B 268 on cell number. Cells were maintained in RPMI media supplemented with 10% foetal calf serum, penicillin (100 U/ml) and streptomycin (100 gig/ml). A total of 11.000 or 13,000 cells, in 100 μl media, were seeded per well in 24 well plates and left to incubate for 24 hours, with an additional 150 μl media added after 5 hours. The media was replaced with solutions containing 10 μM of 11B HCl, 11B CC11 HCl, 11B CC16 HCl, 11B 471, 11B 268 or fresh media as a control. Each drug had 6 replicates. After 24 hours of treatment, the cells were fixed with 1% glutaraldehyde for 15 minutes and then stained with crystal violet for 30 minutes. The plates were blotted and dried overnight. The cells were resuspended with 1% TritonX-100 and shaken for 15 minutes. The absorbance was read on a spectrophotometer at 590 nm.
(§3) OE33P radiosensitive and OE33R radioresistant cells were used to test the effects of the compound 11B_Z_HCl on toxicity. Cells were maintained in RPMI media supplemented with 10% foetal calf serum, penicillin (100 U/ml) and streptomycin (100 μg/ml). A total of 11,000 cells, in 100 μl media, were seeded per well in 24 well plates and left to incubate for 24 hours, with an additional 150 μl media added after 5 hours. The media was replaced with solutions containing 10 μM of 11B_Z_HCl or fresh media as a control. Each treatment had 6 replicates. After 24 hours of treatment, the cells were fixed with 1% glutaraldehyde for 15 minutes and then stained with crystal violet for 30 minutes. The plates were blotted and dried overnight. The cells were resuspended with 1% TritonX-100 and shaken for 15 minutes. The absorbance was read on a spectrophotometer at 590 nm.

The test system of assay [3] is OE33R radio-resistant oesophageal adenocarcinoma cells. The experiment in a line: Cell number after 24 hours drug treatment (crystal violet absorbance), OE33R. The following applies: 10 μM. Format: cell-based, human. The method, then: as §2, §3
The test system of assay [4] is OE33P radiosensitive oesophageal adenocarcinoma cells. Briefly: Quantification of oxidative phosphorylation (OCR, Seahorse), OE33P. Format: cell-based, human. The following applies: 10 μM, 24 hours. The method, then: OE33P radiosensitive and OE33R radio-resistant oesophageal adenocarcinoma cells were used to test the effects of the compounds 11B HCl, 11B CC11 HCl, 11B CC16 HCl, 11B 471 and 11B 268 on oxidative phosphorylation. Cells were maintained in RPMI media supplemented with 10% foetal calf serum, penicillin (100 U/ml) and streptomycin (100 μg/ml). A total of 11,000-13,000 cells, in 100 μl media, were seeded per well in 24 well plates and left to incubate for 24 hours, with an additional 150 μl media added after 5 hours. The media was replaced with solutions containing 10 μM of 11B HCl, 11B CC11 HCl, 11B CC16 HCl, 11B 471, 11B 268 or fresh media as a control. Each drug had 6 replicates. After 24 hours of treatment, media was replaced with modified DMEM supplemented with 0.5 mM glucose. Rates of oxidative phosphorylation were determined using Seahorse Biosciences metabolism technology. The media was disposed and the cells washed with PBS. The cells were fixed with 1% glutaraldehyde for 15 minutes and then stained with crystal violet for 30 minutes. The plates were blotted and dried overnight. The cells were resuspended with 1% TritonX-100 and shaken for 15 minutes. The absorbance was read on a spectrophotometer at 595 nm. Rates of oxidative phosphorylation were then normalised to cell number.
OE33P radiosensitive and OE33R radioresistant oesophageal adenocarcinoma cells were used to test the effects of the compound 11B_Z_HCl on oxidative phosphorylation. Cells were maintained in RPMI media supplemented with 10%0/foetal calf serum, penicillin […]) and streptomycin (100 μg/ml). A total of 11,000 cells, in 100 μl media, were seeded per well in 24 well plates and left to incubate for 24 hours, with an additional 150 μl media added after 5 hours. The media was replaced with solutions containing 10 μM of 11B_Z_HCl or fresh media as a control. Each treatment had 6 replicates. After 24 hours of treatment, media was replaced with modified DMEM supplemented with 0.5 mM glucose. Rates of oxidative phosphorylation were determined using Seahorse Biosciences metabolism technology. Rates of oxidative phosphorylation were then normalised to cell number.

In assay [5] the test system is zebrafish intersegmental vessels. The experiment in a line: Quantification of intersegmental vessel number in zebrafish. Format: in vivo. The conditions noted are these: 10 μM, from 6 hpf. The method, then:
[…] Larvae were manually dechorionated, euthanised, and fixed in 4% PFA at 4° C. overnight before analysis. The larvae were then washed with PBS and transferred to depression slides for observation under epi-fluorescence in an Olympus SZX16 fluorescent microscope. The number of intersegmental vessels was counted and the average number was graphed for each drug.
Larvae were manually dechorionated, euthanised, and fixed in 4% PFA at 4° C. overnight before analysis. The larvae were then washed with PBS and transferred to depression slides for observation under epi-fluorescence in an Olympus SZX16 fluorescent microscope. The number of intersegmental vessels was counted and the average number was graphed for each drug.

For assay [6], the system named is OE33R radio-resistant oesophageal adenocarcinoma cells. The experiment in a line: Quantification of glycolysis (ECAR, Seahorse), OE33R. The following applies: 10 μM, 24 hours. The assay is classed as cell-based, human. The method, then: OE33P radio-sensitive and OE33R radio-resistant oesophageal adenocarcinoma cells were used to test the effects of compounds 11B HCl, 11B CC11 HCl, 11B CC16 HCl, 11B 471 and 11B 268 on glycolysis. Cells were maintained in RPMI media supplemented with 10% foetal calf serum, penicillin (100 U/ml) and streptomycin (100 μg/ml). A total of 11,000 or 13,000 cells, in 100 μl media, were seeded per well in 24 well plates and left to incubate for 24 hours, with an additional 150 μl media added after 5 hours. The media was replaced with solutions containing 10 μM of 11B HCl, […], 11B CC16 HCl, 11B 471, 11B 268 or fresh media as a control. Each drug had 6 replicates. After 24 hours of treatment, media was replaced with modified DMEM supplemented with 0.5 mM glucose. Rates of glycolysis were determined using Seahorse Biosciences metabolism technology. The media was disposed and the cells washed with PBS. The cells were fixed with 1% glutaraldehyde for 15 minutes and then stained with crystal violet for 30 minutes. The plates were blotted and dried overnight. The cells were resuspended with 1% TritonX-100 and shaken for 15 minutes. The absorbance was read on a spectrophotometer at 590 nm. Rates of glycolysis were then normalised to cell number.
OE33P radiosensitive oesophageal adenocarcinoma cells were used to test the effects of the compound 11B_ZHCl on glycolysis. Cells were maintained in RPMI media supplemented with 10% foetal calf serum, penicillin (100 U/ml) and streptomycin (100 μg/ml). A total of 11,000 cells, in 100 μl media, were seeded per well in 24 well plates and left to incubate for 24 hours, with an additional 150 μl media added after 5 hours. The media was replaced with solutions containing 10 μM of 11B_ZHCl or fresh media as a control. Each treatment had 6 replicates. After 24 hours of treatment, media was replaced with modified DMEM supplemented with 0.5 mM glucose. Rates of glycolysis were determined using Seahorse Biosciences metabolism technology. […] The absorbance was read on a spectrophotometer at 590 nm. […] No changes in ECAR were detected in OE33R treated cells.

As for `COc1ccccc1C=Cc1ccc2ccccc2n1` [Compound 11B-268, 2-(2-(2-Methoxyphenyl)vinyl)quinoline], the “dose-dependent inhibition of development of hyaloid vessels” value in assay [1] was “dose-dependent effect; also recorded: inhibit developmental angiogenesis of zebrafish hyaloid vasculature in a dose-dependent statistically significant manner”. For the same compound, the “inhibition of developmental angiogenesis of the hyaloid vasculature (number of primary hyaloid vessels)” value in assay [1] is listed as “inhibit developmental angiogenesis of the zebrafish hyaloid vasculature in a statistically significant manner”. Besides, the “cell number, measured by % absorbance” value in assay [2] and in assay [3] was “did not significantly reduce cell number” each time. Further, in assay [4], the “oxygen consumption rate (OCR), a measure of oxidative phosphorylation” value is “significantly reduce”.
On to `C(=Cc1ccc2ccccc2n1)c1cccnc1` [Compound 11B-471, 2-[2-(3-pyridinyl)vinyl]quinoline], for which, in assay [1], the “dose-dependent inhibition of development of hyaloid vessels” value was “inhibit developmental angiogenesis of zebrafish hyaloid vasculature in a dose-dependent statistically significant manner” and the “inhibition of developmental angiogenesis of the hyaloid vasculature (number of primary hyaloid vessels)” value was “inhibit developmental angiogenesis of the zebrafish hyaloid vasculature in a statistically significant manner”. Besides, the “inhibition of developmental angiogenesis of intersegmental vessels (number of intersegmental vessels)” value in assay [5] was “inhibit developmental angiogenesis of zebrafish intersegmental vessels in a statistically significant manner”. The “cell number, measured by % absorbance” value in assay [2] is on record as “did not significantly reduce cell number”. Moreover, in assay [3], the “cell number, measured by % absorbance” value is listed as “did not significantly reduce cell number”. Besides, the “extracellular acidification rate (ECAR), a measure of glycolysis” value in assay [6] is recorded as “significantly reduce”.

The record behind these values is patent publication US9815788B2, “Anti-angiogenic compounds” (University College Dublin National University of Ireland, …, priority 2012, dated 2017).
